Structures can show the parent of a compound that is named as a salt.
Columns and labels:
[1] = tested on: edema formation induced using histamine as an agonist; assay: Miles assay with histamine as agonist; assay type: in vivo, Sprague-Dawley rats; settings: 1.5 mg/kg; histamine 10 μg/injection site; vehicle 12
Procedure: Sprague-Dawley rats were first injected IV with vehicle alone or test agent, followed by IV injection of Evans blue dye, followed by intradermal injections of saline and VEGF (200 ng/injection site) along both shaved flanks. After 45 min, intradermal injection sites were photographed and then scored by a blinded observer for extravasation of Evans blue dye into the dermis (dermal bluing) according to a 4 point scoring system (3=maximal bluing, ≧75% of response in vehicle-treated animals; 2=medium bluing, >25% but <75% of vehicle-treated animals; 1=minimal bluing, ≦25% of vehicle-treated animals; 0=bluing equivalent to saline injection sites on same animal). Individual scores for 4 injection sites (from 2 separate animals) were summed and are shown as a scale of 0-12, with a lower score indicating the greater anti-edema activity; note that all vehicle-treated groups score a value of 12, based on the scoring system outlined above.
The ability of test agents to influence edema induced by agonists other than VEGF was also tested. Compounds cited in this application inhibited edema formation induced using histamine as an agonist, for example, as shown below.
The ability of test agent to influence vascular edema was tested as above, except that the ability to block edema was tested using either VEGF or histamine as the agonist (200 ng and 10 μg/injection site, respectively).

acute myocardial infarct = assay: Rat acute myocardial infarct model (60 min LAD occlusion, reperfusion); assay type: in vivo, Sprague-Dawley rats; settings: 1.5 mg/kg IV at 90 min post-reperfusion, 24 hr
Procedure: A rodent model of acute myocardial infarct, in which the proximal left anterior descending coronary artery (LAD) is occluded for 60 min followed by reperfusion, was used to determine whether test agents reduced infarct size at 24 hours.
Myocardial infarcts were created in Sprague-Dawley rats (200-300 g body weight) by a 60 min occlusion of the LAD followed by LAD reperfusion. At 90 min post-reperfusion, either vehicle alone or test agents were injected IV. At 24 hr post-treatment, the ischemic zone (area at-risk, AAR) was delineated by re-ligation of the LAD followed by IV injection of alkali blue dye, after which hearts were sectioned along the short axis and stained using triphenyltetrazolium chloride to delineate viable from infarcted myocardium. Photographic images were then analyzed using morphometric software to calculate infarct area as a percent of the at-risk area.
The following studies were performed as described above, except that the timing of 3-[2,4-diamino-6-(3-hydroxyphenyl)pteridin-7-yl] phenol dihydrochloride salt administration (at 0.1 mg/kg) was varied. In one group, 3-[2,4-diamino-6-(3-hydroxyphenyl)pteridin-7-yl] phenol dihydrochloride salt was administered at both 60 and 240 min post-occlusion.
In a porcine MI model (90 min of LAD occlusion followed by complete reperfusion), a single 0.3 mg/kg IV bolus delivered 30 min post-reperfusion reduced infarct size by […] vs. controls (40% vs. 56%, N=12-13, P=0.03).

With Nc1ncnc2nc(-c3ccc(O)cc3)c(-c3ccc(O)cc3)nc12 [compound A, 6,7-bis(4-hydroxyphenyl)-pteridin-4-ylamine sulfate salt] the “Score with histamine as agonist (scale of 0-12)” value [1] was 3, the “Infarct (% AAR, mean ± SEM)” value (acute myocardial infarct) was 60.6 ± 1.8 % AAR and the “% Infarct reduction” value (acute myocardial infarct; vs vehicle) was 20%.

Source: US20050282814A1, “Vasculostatic agents and methods of use thereof” (TargeGen, Inc., priority 2002, published 2005)
